From article PMC7190078 (Journal of medicinal chemistry, 2019)

Assays:
[1] = molecular target: HDAC3 (Homo sapiens, UniProt O15379); assay: HDAC inhibition, electrophoretic mobility shift assay; type: biochemical; settings: EMSA, n = 2
[2] = molecular target: T1, HDAC6 (Homo sapiens, UniProt Q9UBN7); assay: as above; type: biochemical; settings: EMSA, n = 2
T1 sequence (Q9UBN7 1-1215): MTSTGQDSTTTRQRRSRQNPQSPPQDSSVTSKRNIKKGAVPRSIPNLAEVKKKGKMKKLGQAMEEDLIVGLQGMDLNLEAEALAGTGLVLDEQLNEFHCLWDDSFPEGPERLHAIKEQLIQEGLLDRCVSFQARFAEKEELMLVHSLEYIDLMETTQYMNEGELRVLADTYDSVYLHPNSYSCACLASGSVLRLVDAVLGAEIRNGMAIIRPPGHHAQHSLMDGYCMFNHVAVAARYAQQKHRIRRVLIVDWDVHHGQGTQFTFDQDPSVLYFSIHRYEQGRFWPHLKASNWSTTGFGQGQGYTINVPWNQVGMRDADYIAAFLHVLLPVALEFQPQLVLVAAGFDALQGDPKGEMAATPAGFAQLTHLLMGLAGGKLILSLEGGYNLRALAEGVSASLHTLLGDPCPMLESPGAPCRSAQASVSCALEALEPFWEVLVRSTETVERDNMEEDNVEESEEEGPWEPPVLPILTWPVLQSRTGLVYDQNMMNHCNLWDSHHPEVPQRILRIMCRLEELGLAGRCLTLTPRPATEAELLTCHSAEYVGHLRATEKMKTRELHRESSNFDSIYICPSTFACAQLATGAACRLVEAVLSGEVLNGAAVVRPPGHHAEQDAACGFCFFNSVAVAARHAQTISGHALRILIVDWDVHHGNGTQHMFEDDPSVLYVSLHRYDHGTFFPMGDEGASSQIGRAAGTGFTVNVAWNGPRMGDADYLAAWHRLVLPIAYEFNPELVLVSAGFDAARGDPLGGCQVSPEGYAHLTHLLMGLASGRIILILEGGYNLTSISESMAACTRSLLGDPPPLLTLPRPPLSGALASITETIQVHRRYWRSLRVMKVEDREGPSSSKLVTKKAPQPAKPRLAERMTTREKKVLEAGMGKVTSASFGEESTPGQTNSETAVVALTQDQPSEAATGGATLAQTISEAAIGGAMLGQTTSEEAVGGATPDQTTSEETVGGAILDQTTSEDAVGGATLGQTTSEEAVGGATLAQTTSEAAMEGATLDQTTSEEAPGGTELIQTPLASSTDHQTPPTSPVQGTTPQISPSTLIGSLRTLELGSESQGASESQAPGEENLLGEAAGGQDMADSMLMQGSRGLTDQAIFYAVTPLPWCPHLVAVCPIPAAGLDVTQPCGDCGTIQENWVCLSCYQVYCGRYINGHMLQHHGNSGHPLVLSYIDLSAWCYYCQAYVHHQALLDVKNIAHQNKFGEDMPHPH

[3] = molecular target: T2, HDAC8 (Homo sapiens, UniProt Q9BY41); assay: as above; type: biochemical
T2 sequence (Q9BY41 1-377): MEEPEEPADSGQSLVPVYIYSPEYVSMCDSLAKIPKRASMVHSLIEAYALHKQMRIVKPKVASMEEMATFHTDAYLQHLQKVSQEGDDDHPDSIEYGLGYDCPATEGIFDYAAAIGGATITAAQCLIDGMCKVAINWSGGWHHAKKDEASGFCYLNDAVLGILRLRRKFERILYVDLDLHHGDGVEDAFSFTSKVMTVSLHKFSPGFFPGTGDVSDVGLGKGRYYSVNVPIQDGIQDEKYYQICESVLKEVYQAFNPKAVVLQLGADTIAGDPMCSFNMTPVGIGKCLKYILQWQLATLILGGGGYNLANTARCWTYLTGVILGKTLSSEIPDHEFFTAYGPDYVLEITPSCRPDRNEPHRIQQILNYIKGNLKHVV

[4] = molecular target: T3, HDAC11 (Homo sapiens, UniProt Q96DB2); assay: as above; type: biochemical; settings: EMSA, n = 2
T3 sequence (Q96DB2 1-347): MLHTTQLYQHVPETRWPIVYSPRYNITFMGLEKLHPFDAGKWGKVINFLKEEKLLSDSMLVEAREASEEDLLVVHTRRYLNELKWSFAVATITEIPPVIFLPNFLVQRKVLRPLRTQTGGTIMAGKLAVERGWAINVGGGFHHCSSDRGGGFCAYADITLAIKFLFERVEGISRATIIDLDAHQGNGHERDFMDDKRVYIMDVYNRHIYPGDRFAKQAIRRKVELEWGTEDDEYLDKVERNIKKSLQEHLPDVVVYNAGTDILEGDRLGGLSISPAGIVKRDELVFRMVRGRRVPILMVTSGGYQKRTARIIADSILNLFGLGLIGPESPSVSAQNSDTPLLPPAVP

[5] = molecular target: HDAC1 (Homo sapiens, UniProt Q13547); assay: HDAC inhibition, EMSA at fixed concentration; type: biochemical
Chain of HDAC1 (Q13547 whole entry): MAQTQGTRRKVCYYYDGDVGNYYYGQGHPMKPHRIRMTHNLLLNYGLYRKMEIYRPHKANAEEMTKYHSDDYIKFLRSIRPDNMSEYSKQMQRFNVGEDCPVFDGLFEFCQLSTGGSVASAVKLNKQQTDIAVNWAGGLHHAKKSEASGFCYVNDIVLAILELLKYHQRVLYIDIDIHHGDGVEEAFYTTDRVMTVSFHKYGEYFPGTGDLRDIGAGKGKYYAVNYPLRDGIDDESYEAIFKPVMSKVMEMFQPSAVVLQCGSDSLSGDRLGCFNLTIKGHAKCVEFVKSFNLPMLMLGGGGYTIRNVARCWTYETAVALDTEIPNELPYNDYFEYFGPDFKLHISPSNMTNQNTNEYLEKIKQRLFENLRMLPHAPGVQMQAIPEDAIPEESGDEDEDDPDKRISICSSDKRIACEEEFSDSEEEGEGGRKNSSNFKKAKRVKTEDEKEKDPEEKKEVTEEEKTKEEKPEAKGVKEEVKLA

[6] = molecular target: HDAC4 (Homo sapiens, UniProt P56524); assay: HDAC inhibition, EMSA at fixed concentration; type: biochemical
Chain of HDAC4 (P56524 whole entry): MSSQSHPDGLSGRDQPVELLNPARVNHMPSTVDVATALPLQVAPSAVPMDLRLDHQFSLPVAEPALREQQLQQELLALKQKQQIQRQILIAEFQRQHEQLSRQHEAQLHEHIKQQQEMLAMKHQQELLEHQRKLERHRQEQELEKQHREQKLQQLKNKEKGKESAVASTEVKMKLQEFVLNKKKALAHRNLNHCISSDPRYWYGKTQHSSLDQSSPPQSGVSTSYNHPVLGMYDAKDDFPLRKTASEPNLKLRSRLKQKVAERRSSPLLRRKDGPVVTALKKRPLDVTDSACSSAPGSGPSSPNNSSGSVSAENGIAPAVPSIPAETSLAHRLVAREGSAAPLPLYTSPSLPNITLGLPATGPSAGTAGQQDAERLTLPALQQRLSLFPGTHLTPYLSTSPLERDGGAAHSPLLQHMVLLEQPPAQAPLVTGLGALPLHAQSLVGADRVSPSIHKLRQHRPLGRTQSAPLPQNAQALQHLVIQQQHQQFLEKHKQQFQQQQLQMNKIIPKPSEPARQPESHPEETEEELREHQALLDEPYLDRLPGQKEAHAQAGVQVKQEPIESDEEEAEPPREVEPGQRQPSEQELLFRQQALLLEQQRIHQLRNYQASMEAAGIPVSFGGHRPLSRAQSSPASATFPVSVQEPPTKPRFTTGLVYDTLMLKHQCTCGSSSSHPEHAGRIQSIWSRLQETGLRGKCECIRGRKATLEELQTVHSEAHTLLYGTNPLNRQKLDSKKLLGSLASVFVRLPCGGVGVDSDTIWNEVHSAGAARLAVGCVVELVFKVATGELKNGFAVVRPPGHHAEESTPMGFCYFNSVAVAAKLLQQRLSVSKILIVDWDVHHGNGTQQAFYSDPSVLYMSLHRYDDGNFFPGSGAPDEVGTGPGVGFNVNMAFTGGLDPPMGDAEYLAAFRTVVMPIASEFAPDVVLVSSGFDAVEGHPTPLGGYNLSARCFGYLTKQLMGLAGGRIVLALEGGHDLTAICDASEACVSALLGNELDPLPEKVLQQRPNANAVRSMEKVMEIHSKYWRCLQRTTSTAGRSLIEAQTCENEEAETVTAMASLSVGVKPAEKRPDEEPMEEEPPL

[7] = molecular target: T4, HDAC10 (Homo sapiens, UniProt Q969S8); assay: HDAC inhibition, EMSA at fixed concentration; type: biochemical
T4 sequence (Q969S8 1-669): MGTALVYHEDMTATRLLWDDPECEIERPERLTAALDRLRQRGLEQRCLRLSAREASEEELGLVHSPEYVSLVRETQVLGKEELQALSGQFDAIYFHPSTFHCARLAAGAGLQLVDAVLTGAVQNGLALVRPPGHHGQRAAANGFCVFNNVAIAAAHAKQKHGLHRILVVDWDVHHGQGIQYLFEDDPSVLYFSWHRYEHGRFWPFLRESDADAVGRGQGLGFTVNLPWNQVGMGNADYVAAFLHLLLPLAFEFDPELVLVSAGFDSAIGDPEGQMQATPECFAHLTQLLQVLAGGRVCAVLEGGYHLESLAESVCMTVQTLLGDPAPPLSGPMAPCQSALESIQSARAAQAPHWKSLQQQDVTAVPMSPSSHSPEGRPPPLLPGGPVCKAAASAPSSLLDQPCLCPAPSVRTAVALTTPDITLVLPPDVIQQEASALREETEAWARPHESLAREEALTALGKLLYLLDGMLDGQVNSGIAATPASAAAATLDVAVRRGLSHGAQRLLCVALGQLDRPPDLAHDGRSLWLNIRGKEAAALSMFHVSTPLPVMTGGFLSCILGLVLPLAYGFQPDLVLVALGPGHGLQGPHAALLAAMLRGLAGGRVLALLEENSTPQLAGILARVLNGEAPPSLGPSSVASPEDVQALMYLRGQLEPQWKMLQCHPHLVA

[8] = system: MV4–11 AML cells; assay: Cytotoxicity assay; type: cell-based; settings: Homo sapiens, MV4-11, read-out: IC50 (cytotoxicity)
[9] = system: MOLM-13 acute myeloid leukemia (AML) cells; assay: Cytotoxicity assay; type: cell-based, human; settings: MOLM-13 AML cells
[10] = system: chronic myelogenous leukemia K562 cells; assay: Cytotoxicity assay; type: cell-based, human
[11] = system: MRC-9 lung cells (noncancerous); assay: Cytotoxicity assay; type: cell-based, human
[12] = system: brain tumor stem cell (BTSC) glioblastoma lines; assay: Cytotoxicity assay in GBM BTSCs; type: cell-based, human; settings: multiple BTSC glioblastoma lines
[13] = system: D425 primary medulloblastoma (MDB) cells; assay: Cytotoxicity assay in medulloblastoma cells; type: cell-based, human
[14] = system: D458 recurrent MDB cells; assay: Cytotoxicity assay in medulloblastoma cells; type: cell-based, human
[15] = system: PC-3 prostate cancer cells; assay: Cytotoxicity in prostate cancer cells; type: cell-based, human
[16] = Glutathione stability assay using HPLC; type: physicochemical; settings: 100-fold excess reduced L-glutathione, HEPES buffer pH 7.4, after 25 h
[17] = Glutathione stability assay using 19F NMR; type: physicochemical; settings: 100-fold excess glutathione, after 16 h
[18] = system: STAT3 (total and pY705); assay: Western blot, STAT3 signaling in MDA-MB-231 cells; type: cell-based, human; settings: at 10-fold of the IC50
[19] = system: STAT5b (total and pY694); assay: Western blot, STAT5 signaling in MV4–11 cells; type: cell-based, human; settings: at 10 μM
[20] = Mouse plasma protein binding assay; type: in vitro ADME; settings: both, CD-1, mouse
[21] = Caco-2 permeability assay; type: in vitro ADME; settings: human
[22] = Single-dose pharmacokinetics in NSG mice; type: in vivo, mouse
[23] = Serum concentration after 5 days daily dosing in NSG mice; type: in vivo, mouse; settings: for concentration at 5 h: NSG, mouse, serum, intraperitoneal
[24] = system: NSG mice; assay: Toxicity study; type: in vivo
[25] = system: equivalent immunodeficient mice; assay: Orthotopic tumor model in immunodeficient mice, survival

Chain of HDAC3 (O15379 whole entry): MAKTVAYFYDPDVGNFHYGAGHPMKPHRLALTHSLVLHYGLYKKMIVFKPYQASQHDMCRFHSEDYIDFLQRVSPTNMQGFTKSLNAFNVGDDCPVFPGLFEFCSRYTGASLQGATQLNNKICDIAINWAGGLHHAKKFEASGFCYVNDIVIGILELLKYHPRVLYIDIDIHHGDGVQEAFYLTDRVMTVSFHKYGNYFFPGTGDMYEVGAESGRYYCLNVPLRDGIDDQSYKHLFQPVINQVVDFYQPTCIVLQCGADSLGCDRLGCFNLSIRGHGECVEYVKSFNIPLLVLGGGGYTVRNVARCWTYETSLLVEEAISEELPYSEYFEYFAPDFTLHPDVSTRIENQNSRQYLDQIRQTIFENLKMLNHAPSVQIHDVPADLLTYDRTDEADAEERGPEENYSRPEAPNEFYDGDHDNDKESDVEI
Chain of HDAC3 (Q9Y618 395-489 partner limits assumed): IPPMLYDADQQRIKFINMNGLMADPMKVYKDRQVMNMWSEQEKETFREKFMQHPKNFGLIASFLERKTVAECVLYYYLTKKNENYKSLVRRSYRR

CC(C)(C)c1ccc(CN(C(=O)CN(Cc2c(F)c(F)c(F)c(F)c2F)S(=O)(=O)c2ccc(F)cc2)c2ccc(C(=O)NO)cc2)cc1 [AES-135, 4-(N-(4-(tert-Butyl)benzyl)-2-((4-fluoro-N-((perfluorophenyl)-methyl)phenyl)sulfonamido)acetamido)-N-hydroxybenzamide]
inhibition at 10 µM ([1]; read-out: % inhibition HDAC3, at 10 μM): > 90%
inhibition at 10 µM ([2]; read-out: % inhibition HDAC6, at 10 μM): > 90%
IC50 [3]: 1100 nM
inhibition at 10 µM ([3]; read-out: % inhibition HDAC8, at 10 μM, EMSA, n = 2): > 90%
inhibition at 10 µM ([4]; read-out: % inhibition HDAC11, at 10 μM): > 90%
inhibition at 10 µM ([5]; read-out: % inhibition HDAC1, at 10 μM, n = 2): ≥ 70%
inhibition at 10 µM ([6]; read-out: % inhibition HDAC4, at 10 μM, n = 2): < 20%
inhibition at 10 µM ([7]; read-out: % inhibition HDAC10, at 10 μM, n = 2): ≥ 70%
IC50 [8]: 1880 ± 890 nM
cytotoxic potency [9]: low μM potency
sensitivity to cytotoxicity [10]: resistant
toxicity in noncancerous cells [11]: minimal toxicity
cytotoxic potency [12]: low μM potency
cytotoxic potency [13]: nM activity
cytotoxic potency [14]: nM activity
cytotoxic potency [15]: low μM potency
stability to glutathione (HPLC) [16]: No discernible reaction was observed
stability to glutathione (19F NMR) [17]: no displacement of fluoride was observed
effect on total STAT3 and pY705 STAT3 (Western blot) [18]: neither total STAT3 nor pY705 STAT3 was significantly reduced
effect on total STAT5b and pY694 STAT5b (Western blot) [19]: failed to suppress total STAT5b or pY694 STAT5b
recovery at 6 h ([20]; mouse plasma): 16 to 20%
fraction unbound at 6 h ([20]; plasma): 0.004
Papp A→B at 5 µM [21]: 0.27 ×10⁻⁶ cm/s
efflux ratio at 5 µM [21]: 3.83
duration of micromolar (μM) concentrations ([22]; IP injection): > 10 h
clearance rate ([22]; single 20 mg/kg IP, assuming bioavailability to be 100%): 0.004 L/h
increase in blood concentration from quadrupling the dose ([23]; 40 vs 10 mg/kg): ~5.7 fold
concentration at 5 h ([23]; 10 mg/kg): 323 ng/mL
concentration at 5 h ([23]; 40 mg/kg): 1830 ng/mL
toxicity assessed via weight loss ([24]; 60 mg/kg IP daily for 4–5 days, n = 6): no significant weight loss
toxicity based on percentage weight loss compared to vehicle control ([24]; 10 and 40 mg/kg IP once a day for 5 days): No visible toxicity
survival advantage [25]: no obvious survival advantage

CN(O)C(=O)c1ccc(N(Cc2ccc(C(C)(C)C)cc2)C(=O)CN(Cc2c(F)c(F)c(F)c(F)c2F)S(=O)(=O)c2ccc(F)cc2)cc1 [compound 60, 4-(N-(4-(tert-Butyl)benzyl)-2-((4-fluoro-N-((perfluorophenyl)-methyl)phenyl)sulfonamido)acetamido)-N-hydroxy-N-methylbenzamide]
% inhibition HDAC3 ([1]; at 10 μM): 0%
% inhibition HDAC6 ([2]; at 10 μM): 12%
% inhibition HDAC8 ([3]; at 10 μM, EMSA, n = 2): 0%
% inhibition HDAC11 ([4]; at 10 μM): 64%
% inhibition HDAC1 ([5]; at 10 μM, n = 2): 0%
% inhibition HDAC4 ([6]; at 10 μM, n = 2): 0%
% inhibition HDAC10 ([7]; at 10 μM, n = 2): 0%
